From ChEMBL document CHEMBL1221283, “Antimicrobial phenolic abietane diterpene from Lycopus europaeus L. (Lamiaceae)” (2010)
Values after ≈ are worked out from the molar mass of the structure shown.

Assays:
Format in all cases: functional
Penicillium chrysogenum = test: Antifungal activity against Penicillium chrysogenum isolates after 48 hrs by broth microdilution method
Acremonium chrysogenum = test: Antifungal activity against Acremonium chrysogenum isolates after 48 hrs by broth microdilution method; conditions: Hapsidospora chrysogena
Aspergillus restrictus = test: Antifungal activity against Aspergillus restrictus isolates after 48 hrs by broth microdilution method
Saccharomyces cerevisiae = test: Antifungal activity against Saccharomyces cerevisiae ATCC 9763 after 48 hrs by broth microdilution method
Candida albicans = test: Antifungal activity against Candida albicans ATCC 10231 after 48 hrs by broth microdilution method
Aspergillus fumigatus = test: Antifungal activity against Aspergillus fumigatus isolates after 48 hrs by broth microdilution method
Klebsiella pneumoniae [1] = test: Antibacterial activity against Klebsiella pneumoniae ATCC 10031 after 24 hrs by broth microdilution method; conditions: ATCC 10031, 24 h
Micrococcus luteus = test: Antibacterial activity against Sarcina lutea food isolate after 24 hrs by broth microdilution method
Staphylococcus aureus [2] = test: Antibacterial activity against Staphylococcus aureus ATCC 6538 after 24 hrs by broth microdilution method; conditions: ATCC 6538, 24 h
Bacillus subtilis = test: Antibacterial activity against Bacillus subtilis ATCC 6633 after 24 hrs by broth microdilution method; conditions: ATCC 6633, 24 h
Staphylococcus aureus [3] = test: Antibacterial activity against Staphylococcus aureus ATCC 25923 after 24 hrs by broth microdilution method; conditions: ATCC 25923, 24 h
Staphylococcus aureus [4] = test: Antibacterial activity against Staphylococcus aureus food isolate after 24 hrs by broth microdilution method
Proteus vulgaris = test: Antibacterial activity against Proteus vulgaris ATCC 8427 after 24 hrs by broth microdilution method; conditions: ATCC 8427, 24 h
Escherichia coli [5] = test: Antibacterial activity against Escherichia coli clinical isolate after 24 hrs by broth microdilution method
Bacillus cereus = test: Antibacterial activity against Bacillus cereus food isolate after 24 hrs by broth microdilution method
Pseudomonas aeruginosa = test: Antibacterial activity against Pseudomonas aeruginosa ATCC 9027 after 24 hrs by broth microdilution method; conditions: ATCC 9027, 24 h
Escherichia coli [6] = test: Antibacterial activity against Escherichia coli food isolate after 24 hrs by broth microdilution method
Escherichia coli [7] = test: Antibacterial activity against Escherichia coli ATCC 25922 after 24 hrs by broth microdilution method; conditions: ATCC 25922, 24 h
Trueperella pyogenes = test: Antibacterial activity against Corynebacterium pyogenes ATCC 19411 after 24 hrs by broth microdilution method; conditions: ATCC 19411, 24 h
Klebsiella pneumoniae [8] = test: Antibacterial activity against Klebsiella pneumoniae clinical isolate after 24 hrs by broth microdilution method
Salmonella enterica = test: Antibacterial activity against Salmonella enterica ATCC 13076 after 24 hrs by broth microdilution method; conditions: ATCC 13076, 24 h

NYSTATIN
MIC (Penicillium chrysogenum): 0.39 µg/mL | MIC (Acremonium chrysogenum): 0.195 µg/mL | MIC (Aspergillus restrictus): 0.781 µg/mL | MIC (Saccharomyces cerevisiae): 12.5 µg/mL | MIC (Candida albicans): 6.25 µg/mL | MIC (Aspergillus fumigatus): 0.195 µg/mL

CN(C)[C@@H]1C(O)=C(C(N)=O)C(=O)[C@@]2(O)C(O)=C3C(=O)c4c(O)cccc4[C@@](C)(O)[C@H]3C[C@@H]12 [TETRACYCLINE]
MIC (Klebsiella pneumoniae [1]): 0.39 µg/mL (≈ 0.878 µM) | MIC (Micrococcus luteus): 0.39 µg/mL (≈ 0.878 µM) | MIC (Staphylococcus aureus [2]): 0.098 µg/mL (≈ 0.221 µM) | MIC (Bacillus subtilis): 0.195 µg/mL (≈ 0.439 µM) | MIC (Staphylococcus aureus [3]): 0.098 µg/mL (≈ 0.221 µM) | MIC (Staphylococcus aureus [4]): 0.098 µg/mL (≈ 0.221 µM) | MIC (Proteus vulgaris): 0.39 µg/mL (≈ 0.878 µM) | MIC (Escherichia coli [5]): 0.195 µg/mL (≈ 0.439 µM) | MIC (Bacillus cereus): 0.195 µg/mL (≈ 0.439 µM) | MIC (Pseudomonas aeruginosa): 1.56 µg/mL (≈ 3.51 µM) | MIC (Escherichia coli [6]): 1.56 µg/mL (≈ 3.51 µM) | MIC (Escherichia coli [7]): 1.56 µg/mL (≈ 3.51 µM) | MIC (Trueperella pyogenes): 1.56 µg/mL (≈ 3.51 µM) | MIC (Klebsiella pneumoniae [8]): 0.39 µg/mL (≈ 0.878 µM) | MIC (Salmonella enterica): 0.195 µg/mL (≈ 0.439 µM)

COC(=O)[C@]1(C)CC[C@H](OC(C)=O)[C@]2(C)c3c(O)cc(C(C)C)cc3[C@H](O)[C@@H](OC(C)=O)[C@H]21 [EUROABIENOL]
MBC (Klebsiella pneumoniae [1]): 1430 µg/mL (≈ 3100 µM) | MIC (Klebsiella pneumoniae [1]): 179 µg/mL (≈ 387 µM) | MBC (Micrococcus luteus): 179 µg/mL (≈ 387 µM) | MIC (Micrococcus luteus): 45 µg/mL (≈ 97.3 µM) | MFC (Penicillium chrysogenum): 2870 µg/mL (≈ 6200 µM) | MIC (Penicillium chrysogenum): 1430 µg/mL (≈ 3100 µM) | MBC (Staphylococcus aureus [2]): 2870 µg/mL (≈ 6200 µM) | MIC (Staphylococcus aureus [2]): 22 µg/mL (≈ 47.6 µM) | MBC (Bacillus subtilis): 2870 µg/mL (≈ 6200 µM) | MIC (Bacillus subtilis): 179 µg/mL (≈ 387 µM) | MBC (Staphylococcus aureus [3]): 5740 µg/mL (≈ 12400 µM) | MIC (Staphylococcus aureus [3]): 179 µg/mL (≈ 387 µM) | MBC (Staphylococcus aureus [4]): 716 µg/mL (≈ 1550 µM) | MIC (Staphylococcus aureus [4]): 22 µg/mL (≈ 47.6 µM) | MFC (Acremonium chrysogenum): > 5740 µg/mL | MIC (Acremonium chrysogenum): > 5740 µg/mL | MBC (Proteus vulgaris): 5740 µg/mL (≈ 12400 µM) | MIC (Proteus vulgaris): 179 µg/mL (≈ 387 µM) | MBC (Escherichia coli [5]): 716 µg/mL (≈ 1550 µM) | MIC (Escherichia coli [5]): 358 µg/mL (≈ 774 µM) | MFC (Aspergillus restrictus): 2870 µg/mL (≈ 6200 µM) | MIC (Aspergillus restrictus): 1430 µg/mL (≈ 3100 µM) | MFC (Saccharomyces cerevisiae; ATCC 9763, 48 h): 89 µg/mL (≈ 192 µM) | MIC (Saccharomyces cerevisiae; ATCC 9763, 48 h): 89 µg/mL (≈ 192 µM) | MFC (Candida albicans; ATCC 10231, 48 h): 1430 µg/mL (≈ 3100 µM) | MIC (Candida albicans; ATCC 10231, 48 h): 358 µg/mL (≈ 774 µM) | MBC (Bacillus cereus): 716 µg/mL (≈ 1550 µM) | MIC (Bacillus cereus): 89 µg/mL (≈ 192 µM) | MBC (Pseudomonas aeruginosa): 2870 µg/mL (≈ 6200 µM) | MIC (Pseudomonas aeruginosa): 358 µg/mL (≈ 774 µM) | MFC (Aspergillus fumigatus): 358 µg/mL (≈ 774 µM) | MIC (Aspergillus fumigatus): 89 µg/mL (≈ 192 µM) | MBC (Escherichia coli [6]): 5740 µg/mL (≈ 12400 µM) | MIC (Escherichia coli [6]): 716 µg/mL (≈ 1550 µM) | MBC (Escherichia coli [7]): 2870 µg/mL (≈ 6200 µM) | MIC (Escherichia coli [7]): 179 µg/mL (≈ 387 µM) | MBC (Trueperella pyogenes): 1430 µg/mL (≈ 3100 µM) | MIC (Trueperella pyogenes): 179 µg/mL (≈ 387 µM) | MBC (Klebsiella pneumoniae [8]): 716 µg/mL (≈ 1550 µM) | MIC (Klebsiella pneumoniae [8]): 45 µg/mL (≈ 97.3 µM) | MBC (Salmonella enterica): 1430 µg/mL (≈ 3100 µM) | MIC (Salmonella enterica): 179 µg/mL (≈ 387 µM)
